Data from patent publication US11433038B2, “High concentration medicant solutions for treating neurological disorders” (Cerebral Therapeutics, Inc., priority 2017, dated 2022).
“Also recorded” adds a separate entry of the source. Where a name gives a salt, the structure may show the parent alone.

What was measured:
[1] = on the order of; cited from earlier work
[2] = pH titration of sodium valproate solutions (5 mL) with 25 mM HCl (FIG. 7)
human subjects = experiment: subject-reported effects during direct brain (CSF) administration of valproate; format: in vivo
[3] = reported solubility limit; cited from earlier work
[4] = pH of aqueous sodium valproate solutions; format: physicochemical
[5] = valproate concentration in blood serum and cerebrospinal fluid after administration was stopped (FIG. 1-3); format: in vivo; conditions: human subjects, FIG. 2
Experimental: The subjects have been administered different dosage levels of valproate using different concentrations of valproate in solution. […] The subjects have been administered different dosage levels of valproate using different concentrations of valproate in solution. […] The subject has been administered 60 mg/day total of valproate using a pump which provides direct regional administration of valproate to the subject's brain using a 100 mg/mL solution.

[6] = solubility of sodium valproate in water; conditions: early emulsion experiments
[7] = 0.4% sodium citrate (13.6 mM) in 150 mg/mL (0.9 M) sodium valproate
[8] = 150 mg/mL sodium valproate, 5 mL, 25 mM HCl

SMILES: NCC(CC(=O)O)c1ccc(Cl)cc1 (stereo not shown) [Baclofen]
- half-life [1]: five

SMILES: O=C(O)CC(O)(CC(=O)O)C(=O)O [sodium citrate]
- effect of sodium citrate on buffer capacity [2, 7]: does not provide any measurable increase in buffering capacity above pH 7; also recorded: virtually no effect
- effect of sodium citrate on initial pH [2, 7]: nor does it significantly change the initial pH

SMILES: CCCC(CCC)C(=O)[O-].[Na+] [sodium valproate]
- volume of 25 mM HCl at which the pH hits the pKa ([2]; 10 mM sodium valproate, 5 mL): 0.6 mL
- pH at start of titration ([2]; 10 mM sodium valproate, 5 mL, before acid): 6.6
- pH after 0.6 mL of acid ([2]; 10 mM sodium valproate, 5 mL, 0.6 mL of 25 mM HCl): 4.81
- pH after 0.7 mL of acid ([2]; 10 mM sodium valproate, 5 mL, 0.7 mL of 25 mM HCl): 4.74
- pH after 1 mL of acid ([2]; 10 mM sodium valproate, 5 mL, 1 mL of 25 mM HCl added in 0.1 mL increments): 4.36
- change in pH on titration ([2]; 150 mg/mL sodium valproate): minimal
- pH at last point of titration curve [2, 8]: 7.30
- pH at second-to-last point of titration curve [2, 8]: 7.34
- buffering of concentrated solutions ([2]; concentrated solutions of sodium valproate): strongly buffer solutions at pH>8
- perception of body temperature (human subjects; human subjects receiving valproate to the brain): always cold
- nausea at therapeutic level (human subjects; human subjects, on reaching a therapeutic level): feeling of nauseous which seems to pass over time
- solubility limits in water, commonly reported [3]: 50 to 100 mg/mL
- pH of solution ([4]; 150 mg/mL sodium valproate in water): approximately 8.3
- pH of solution ([4]; more concentrated solutions (>350 mg/mL)): above 9
- concentration in cerebrospinal fluid over time [5]: drops quickly

SMILES: CCCC(CCC)C(=O)O [valproic acid]
- behaviour of emulsified droplets of pure valproic acid (liquid) in water [6]: dissolving into the water
